Experiments:
[1] = cited from earlier work
[2] = target: T1, hexameric structure of human insulin (Homo sapiens, UniProt P01308); experiment: Circular dichroism, CD signal of human insulin at 276 nm; type: physicochemical; settings: rhINS 100 IU/ml; Compound 7.3 mg/mL
T1 construct: the insulin is a recombinant human insulin as described in the European pharmacopea and the American pharmacopea
Method: The CD signal at 276 nm is characteristic of the hexameric form of insulin (hexamer signal at about −300°, dimer signal between −200° and −250° and monomer signal below −200°). Loss of the CD signal at 276 nm is thus characteristic of a destabilization of the hexamer into dimers or monomers.

[3] = target: hexameric form R6 of lispro insulin (Homo sapiens, UniProt P01308, K53P/P52K); experiment: Circular dichroism, CD signal of lispro insulin at 240 nm; settings: lispro insulin 100 IU/mL; substituted anionic compound 7.3 mg/mL; citrate 9.3 mM; EDTA 300 μM
hexameric form R6 of lispro insulin, sequence (P01308 25-54 P52K/K53P limits assumed): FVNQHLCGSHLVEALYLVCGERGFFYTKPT
hexameric form R6 of lispro insulin, sequence (P01308 90-110 limits assumed): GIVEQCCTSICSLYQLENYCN

T1 sequence (P01308 25-54 limits assumed): as the sequence (P01308 25-54 P52K/K53P limits assumed) above, with K28P, P29K counted along it

Row | Molecule | delay of action when compared with a rapid insulin analog (dissociation of hexamers into dimers and monomers) ([1]; Brange J., et al., 1999) | time after which a hypoglycemiant effect occurs ([1]; injected subcutaneously, diabetic patients) [min] | Impact on the hexameric structure of human insulin (CD signal at 276 nm) [2] | Impact on the R6 form of lispro insulin (CD signal at 240 nm) [3]
1 | human insulin: human insulin produced by genetic engineering | up to 20 minutes | 60 |  | 
2 | O=C(O)CCC(=O)N[C@@H](Cc1ccccc1)C(=O)O [Substituted anionic compound A1, N-(3-carboxy-1-oxopropyl-)-L-phenylalanine] |  |  | no impact | 
3 | O=C(O)CC(O)(CC(=O)O)C(=O)O [citrate] |  |  | no impact | no impact
4 | O=C(O)CN(CCN(CC(=O)O)CC(=O)O)CC(=O)O [EDTA] |  |  | very pronounced impact | completely destructures

— patent US9795678B2, “Fast-acting insulin composition comprising a substituted anionic compound and a polyanionic compound” (ADOCIA, priority 2014, dated 2017)
